Assay results: patent US20260273020A1, “OBESTATIN FOR USE AS ANTINEOPLASTIC AGENT IN THE TREATMENT OF PANCREATIC CANCER” (SERVIZO GALEGO DE SAÚDE, priority 2023, published 2026)

Columns and labels:
BxPC3 cells = test: Proliferation assay, cell counting under chronic obestatin treatment; type: cell-based, human
Protocol: (§1) PANC1 cell line was obtained from ECACC (87092802; ECACC, Wiltshire, UK). RWP1 and BxPC3 human pancreatic cancer cell lines were kindly provided by FX Real (Epithelial Carcinogenesis Group, Cancer Cell Biology Programme, Spanish National Cancer Research Centre-CNIO, Madrid, ES). In brief, PANC1 cells were cultured in DMEM (supplemented with 4.5 g/L glucose, 10% FBS, and 1% penicillin/streptomycin), RWP1 and BxPC3 cell lines were maintained in RPMI (supplemented with 10% FBS and 1% penicillin/streptomycin) and incubated in an atmosphere containing 5% CO2 at 37° C. These cells were periodically tested and resulted negative for mycoplasma contamination.
(§2) For the analysis of proliferation the cells were seeded on 12-well plates at an amount of 50,000 cells per well and maintained for 24 h in culture media (see above) to allow attachment. The medium was completely removed and replaced with serum-free media for additional 24 h. Then, cells were treated or not with different doses of obestatin: mouse obestatin (corresponding to SEQ ID NO: 4) for KPC FC1242 and human obestatin (corresponding to SEQ ID NO: 1) for PANC1, RWP1 and BxPC3. The following treatments were used: 0% FBS as negative control, 10% FBS as positive control, 100 nM obestatin, 200 nM obestatin, 100 nM obestatin+10% FBS, and 200 nM obestatin+10% FBS. These treatments were administered every 24 h for three days. Twenty-four h after the last treatment, the cells were trypsinized and manually counted with a Neubauer camera.
(§3) The total cells were calculated using the following equations counting 10 squares: […]
(§4) In all cases, each experiment point was replicated eight times.

RWP1 cells = test: as above; type: cell-based, human
Protocol: as §1, §2, §3, §4

[1] = system: Ki67 positive proliferative cells; test: Ki67 immunohistochemistry of pancreatic tumours; type: in vivo, C57BL/6J mice; conditions: tumour area; obestatin 500 nmol/Kg/72 h
Protocol: FIG. 4. (A) Analysis and quantification of Ki67 positive proliferative cells by immunohistochemistry in the pancreatic tumors of C57BL/6J mice (n=4) orthotopically injected with KPC FC1242 cells and treated with vehicle [NaCl, 0.9% (w/v)] or obestatin (500 nmol/Kg/72 h). Magnification: 4×. (B) Immunoblot analysis of pERK1/2(T202/Y204), ERK1/2, pAkt(S473), and Akt in tumoral pancreatic tissue. Results are expressed as fold of control of the non-treated injected mice [control; mean±SE (*, P<0.05)].
Mice were weighed at set times over the 15-day period. The sterilized surgical material was used for the tissue extraction. […] Pancreases were also measured with a scale (cm) and pictures were taken. • Histology—Pancreas samples for histology were fixed in 4% paraformaldehyde in PBS at room temperature overnight. […] The lysates were clarified by centrifugation (18,000×g, 15 min, 4° C.), and the protein concentration was quantified by the Quantipro™ BCA assay kit (Sigma-Aldrich, St. Louis, MO, US). […]
EnVision™ peroxidase FLEX/HRP (Dako Agilent Technologies, Glostrup; DK) was employed as a detection system. […] Ki67 was analysed immunohistochemically. […] For Ki67 expression quantification in the samples, ten fields of the tumour representative DAB images were quantified by using the Fiji/Image J software.

[2] = 100 nM obestatin+10% FBS each 24 h for 72 h
[3] = human obestatin (SEQ ID NO: 1) 100 nM each 24 h for 72 h, serum-free

obestatin
effect on FBS-mediated proliferation (BxPC3 cells; [2]): significant inhibitory effect
proliferation (number of cells) (BxPC3 cells; [3]): does not activate the proliferation
effect on FBS-mediated proliferation (RWP1 cells; [2]): significant inhibitory effect
proliferation (number of cells) (RWP1 cells; [3]): does not activate the proliferation
diminution in the number of Ki67 positive cells [1]: 56.0±5.2%
